Experimental data published in patent publication US20120045483A1, “Mannitol and/or Proline for Prevention and Treatment of Ageing Related Symptoms” (ERASMUS MC, priority 2006, published 2012).
Where two headings read alike, the source gives them in different places.

Columns and labels:
[1] = Serum mannitol concentration in CSB mice with osmotic pump; format: in vivo; settings: mouse, sc, subcutaneous osmotic pump (200 μl), read-out: Serum [mannitol] after 3 weeks
Description: The sample is further precipitated using acetonitrile and centrifuged. […] The organic layer is isolated and evaporated to dryness. The residue is dissolved in injection solvent and injected.
21 CSB animals, age 6 months, received an osmotic pump, 7×30 mm (volume 200 μl), subcutaneously implanted under the skin on the back, for continuous release of Phosphate Buffered Saline (control), 0.3M D-Mannitol or 0.03M D-Mannitol dissolved in Phosphate Buffered Saline, 7 animals per compound. To determine the actual D-Mannitol concentration in the blood of these animals, blood samples were taken every 7 days after the implantation of the osmotic pump. After three weeks, eyes were isolated from these animals and TUNEL staining was performed to determine the effect of D-Mannitol on diminishing the age-related photoreceptor-loss in CSB animals, Blood and urine samples were taken for measurements of D-mannitol levels and for determination of biomarkers. In a second experiment, the D-Mannitol treatment via osmotic pumps were repeated, but here on 8 week-old CSB mice were γ-irradiated, in order to see if D-mannitol can reduce the γ-induced photoreceptor-loss observed in CSB mice.

[2] = tested on: Csb^G744ter/G744ter/Xpa^null/null double mutant mice; format: in vivo, mouse; settings: for Clearance from the tissues and bloodstream of treated subjects: higher single dose administrations; for Effectiveness of higher single dose administrations: versus low constant source; for Positive results as with mannitol and/or proline: tested under similar conditions
From the text: Additionally these animals have an enhanced photoreceptor cell loss. The accumulation of oxidative DNA damage before and immediately after birth presumably negatively influences transcription and causes the premature ageing phenotype.
In order to investigate the effect of radical scavengers on the CSB/XPA double knockout mice, the effect of several compounds and compositions was monitored by the frequency of CSB/XPA DKO mice (closer to the expected mendelian frequency of 25%), an extended life-span (longer than the average three weeks for untreated DKO mice) and a delay or to some extent inhibit the premature ageing phenotype.
To obtain CSB/XPA double mutant mice the following crossing were done:
From these crossings CSB^−/−XPA^−/− mice were born with a frequency of 9%, whereas the expected Mendelian frequency is 25%.
The offspring were genotyped following normal procedures (tail clipping and genomic DNA analysis by Southern blot analysis or PCR amplification) and monitored for life span.

[3] = In vitro AOC (anti-oxidant capacity); settings: effective concentrations between 0.1 μg/ml and 10 μg/ml as measured in the serum
From the text: The compositions of the invention may be of any type. […] Mannitol and proline in particular have well documented anti-oxidant properties.

CSB mice [4] = test: γ-irradiation induced photoreceptor loss in CSB mice, TUNEL staining of the retina; format: in vivo, mouse; settings: osmotic pump, 8 week-old CSB mice, γ-irradiated
Description: CSB mice have accelerated aging-related photoreceptor loss. […] The photoreceptor loss can also be induced in young adult CSB mice (8-10 weeks) with γ-irradiation (induces a.o. oxidative DNA damage). Since aging-related photoreceptor-loss is at least in part caused by unrepaired oxidative DNA damage, we are able to intervene with anti-oxidant or radical scavenger molecules, in particular with mannitol and/or proline. 21 CSB animals, age 6 months, received an osmotic pump, 7×30 mm (volume 200 μl), subcutaneously implanted under the skin on the back, for continuous release of Phosphate Buffered Saline (control), 0.3M D-Mannitol or 0.03M D-Mannitol dissolved in Phosphate Buffered Saline, 7 animals per compound. To determine the actual D-Mannitol concentration in the blood of these animals, blood samples were taken every 7 days after the implantation of the osmotic pump. After three weeks, eyes were isolated from these animals and TUNEL staining was performed to determine the effect of D-Mannitol on diminishing the age-related photoreceptor-loss in CSB animals, Blood and urine samples were taken for measurements of D-mannitol levels and for determination of biomarkers. […] For quantification, the number of TUNEL-positive cells in the inner nuclear layer (INL) and outer nuclear layer (ONL) were counted in 6 whole sections per mouse. […]

CSB mice [5] = test: Age-related photoreceptor loss in CSB mice, TUNEL staining of the retina, without radiation; format: in vivo, mouse; settings: for Apoptotic index without radiation (number of TUNEL-positive cells): osmotic pump, 3 weeks, CSB mice age 6 months
Description: CSB mice have accelerated aging-related photoreceptor loss. […] The photoreceptor loss can also be induced in young adult CSB mice (8-10 weeks) with γ-irradiation (induces a.o. oxidative DNA damage). Since aging-related photoreceptor-loss is at least in part caused by unrepaired oxidative DNA damage, we are able to intervene with anti-oxidant or radical scavenger molecules, in particular with mannitol and/or proline. 21 CSB animals, age 6 months, received an osmotic pump, 7×30 mm (volume 200 μl), subcutaneously implanted under the skin on the back, for continuous release of Phosphate Buffered Saline (control), 0.3M D-Mannitol or 0.03M D-Mannitol dissolved in Phosphate Buffered Saline, 7 animals per compound. To determine the actual D-Mannitol concentration in the blood of these animals, blood samples were taken every 7 days after the implantation of the osmotic pump. After three weeks, eyes were isolated from these animals and TUNEL staining was performed to determine the effect of D-Mannitol on diminishing the age-related photoreceptor-loss in CSB animals, Blood and urine samples were taken for measurements of D-mannitol levels and for determination of biomarkers. In a second experiment, the D-Mannitol treatment via osmotic pumps were repeated, but here on 8 week-old CSB mice were γ-irradiated, in order to see if D-mannitol can reduce the γ-induced photoreceptor-loss observed in CSB mice. For retinal evaluation by TUNEL staining, eyes were marked nasally with Alcian blue (5% Alcian blue in 96% ethanol), enucleated, fixed in 4% paraformaldehyde in 0.1M phosphate buffer, washed in PBS and embedded in paraffin. Horizontal sections (5 μm thick) of the retina were cut and sections in the middle of the retina were selected by Alcian blue marking and proximity of the optic nerve. […] For quantification, the number of TUNEL-positive cells in the inner nuclear layer (INL) and outer nuclear layer (ONL) were counted in 6 whole sections per mouse.

[6] = 0.2M L-Proline via drinking water, one week, wt animals
Description: (§1) The LLOQ (Lowest Limit of Quantitation) for proline is typically 0.250 μg/ml. […] The sample is further precipitated using acetonitrile and centrifuged. An aliquot of the supernatant is evaporated to dryness under a steam of nitrogen at 60° C., Milli-Q water is added and the preparation is vortexed. Methanol is subsequently added to the preparation and vortexed. Usually Milli-Q water and methanol are added in a ratio of 1/5. The preparation is centrifuged for 2 minutes at a speed of 4000 g or more. The obtained preparation is injected. The apparatus used for LC-MS/MS is API4000 LC-MS/MS.
L-Proline was also measured in the blood and urine of four wt animals that received 0.2M L-Proline via their drinking water. As a control, four wt animals received just drinking water. The duration of this treatment was one week, after which one blood sample and one urine sample was taken.

[7] = Transmission of D-Mannitol and L-Proline from mother to pup, osmotic pump in pregnant wild type mice, LC-MS/MS levels; settings: osmotic pump 200 μl, 0.3M alone or 0.2M each combined, 28 days, pregnant wild type mice (C57B1/6)
Description: The sample is further precipitated using acetonitrile and centrifuged.
as §1

[8] = 5% D-mannitol in PBS, osmotic pump in pregnant females

## OC[C@@H](O)[C@@H](O)[C@H](O)[C@H](O)CO [Mannitol, hexane-1,2,3,4,5,6-hexyl]
[1]; 0.03 M (200 μl osmotic pump, continuous release), 0.03M D-Mannitol in PBS
  concentration at 3 weeks: 100 ± 30 ng/mL
[1]; 0.3 M (200 μl osmotic pump, continuous release), 0.3M D-Mannitol in PBS
  concentration at 3 weeks: 650 ± 180 ng/mL
[2]; 2% D-Mannitol administered to drinking water
  Frequency of birth and survival after birth of XPA/CSB double KO mice: Comparable results
[2]; [8]
  Frequency of birth of XPA/CSB double KO mice: increase in frequency of birth
  Survival after birth (life span) of XPA/CSB double KO mice: increase in survival after birth
[2]
  Clearance from the tissues and bloodstream of treated subjects: rapidly cleared
  Effectiveness of higher single dose administrations: less or even ineffective
[3]
  AOC (anti-oxidant capacity) in vitro: no or negligible
CSB mice [4]; 0.03M D-Mannitol
  Apoptotic index after radiation (number of TUNEL-positive cells): 29.5 ± 6.0
CSB mice [4]; 0.3M D-Mannitol
  Apoptotic index after radiation (number of TUNEL-positive cells): 28.9 ± 11.3
CSB mice [5]; 0.03M D-Mannitol
  Apoptotic index without radiation (number of TUNEL-positive cells): 24.1 ± 6.8
CSB mice [5]; 0.3M D-Mannitol
  Apoptotic index without radiation (number of TUNEL-positive cells): 24.8 ± 6.0
CSB mice [5]; endogenous or exogenous (radiation induced) oxidative stress, CSB mice
  Change of the apoptotic index (photoreceptor loss): significant decrease

## O=C(O)[C@@H]1CCCN1 [proline, L-Proline]
[2]
  Clearance from the tissues and bloodstream of treated subjects: rapidly cleared
  Effectiveness of higher single dose administrations: less or even ineffective
[2]; proline treatment
  Frequency of survival of DKO pups after birth: equally effective in increasing the frequency of survival
[3]
  AOC (anti-oxidant capacity) in vitro: no or negligible
[6]
  L-Proline levels in the blood: no elevated levels
  L-Proline levels in the urine: High levels
[7]
  Elevated levels in blood of mothers and pups, in milk or in whole embryo's: not detected

## O=C1O[C@H]([C@@H](O)CO)C(O)=C1O [vitamin C]
[2]
  Positive results as with mannitol and/or proline: did not yield the positive results

## vitamin E
[2]
  Positive results as with mannitol and/or proline: did not yield the positive results
